Reference: US10350184B2, “Derivatives used in the treatment of muscle atrophy” (METABRAIN RESEARCH, priority 2015, dated 2019)

How the values were obtained:
[1] = system: myostatin gene expression; assay: Measurement of myostatin expression in C2Cl2 (qPCR); assay type: cell-based, Mouse; details: for inhibition of the expression of myostatin: C2Cl2 cells, Table 1, 0.5 μm; for percentage of myostatin gene expression in cells in contact with the molecules related to the expression in the control cells: concentration of the compound 0.5 μm, 6 h, active if less than or close to 70%
Description: C2Cl2 myoblastic cells (ATCC CRL-1772) are seeded in 24-well plates at the density of 30,000 cells per well and cultured in DMEM (Dulbecco's Modified Eagle Medium) medium containing glucose at 4.5 g/L and supplemented with fetal calf serum (10%) and antibiotics (penicillin and streptomycin). […] The cells are then placed in a glucose-depleted medium (DMEM containing 1 g/L of glucose) and devoid of serum in the presence of the test molecules or references (IGF-1 at a concentration of 100 ng/ml) for 6 h. At the end of the experiment, messenger RNAs (mRNAs) are extracted using standard phenol and chloroform methodology. Briefly, the cells are lysed in a solution of trizol (Sigma T9424) containing a strong acid and phenol. The mRNAs are separated from the proteins by the addition of chloroform followed by centrifugation. They are then precipitated in isopropanol and then suspended at the concentration of 1 μg/μL in ultra-pure water free of RNA and DNA. 1 μg of mRNA is then converted by retro-transcription into complementary DNA by the AMV enzyme in the presence a primer and a mixture of nucleotides according to the protocol given by the supplier (Applied Biosystems 4368814). […] QPCRs are performed on a 79001-IT Fast Real-Time PCR detection system (Applied Biosystems). The programming conditions are standard and consist of 1 cycle at 95° C. for 15 min, followed by 40 cycles at 95° C. for 15 sec and 60° C. for 1 min and finalized with a melt curve step at 60° C. and 95° C. The analyzed samples all contain 100 ng of cDNA, a qPCR buffer including the enzyme, the mixture of oligonucleotides and the intercalating SYBR green, and the pair of specific primers of the gene being studied, strategically chosen between two exon sequences and at a final concentration of 200 nM. Fluorescent probes bind to the double-stranded. DNA and fluoresce only once attached to the DNA. A fluorescence threshold is established by the program of the machine. When the amount of DNA allows the fluorescent probe to exceed this threshold, a PCR cycle number called “Ct” is obtained for “cycle threshold” or cycle threshold. It is this value that is the basis of the calculations to quantify the DNA in a relative fashion. A ratio R is set between the amount of the starting DNA in a sample and that of a control, which has not been treated (i.e., R=2^−(Ct Sample−Ct Control)) and this measurement will be compared to that of a household gene known to be unmodulated by the treatment (or R=2^−NRCt).
The primers used are recorded in the following table: […]
For the effects on myostatin expression, the results are expressed as a percentage of myostatin gene expression in cells in contact with the molecules related to the expression in the control cells. The product is supposed to be active if this ratio is less than or close to 70%, the average, value of IGF-1 found at the concentration of 100 ng/mL in this test, considered as reference.

muscle cells = assay: Protein synthesis (via phosphorylation of S6K1) in muscle cells; assay type: cell-based; details: for Protein Synthesis (percentage increase in 56K phosphorylation in muscle cells): significant when greater than 120%
Description: The cells are counted and seeded at a density of […] cells per well in a 24-well plate in a DMEM medium containing glucose at 4.5 g/L and supplemented with fetal calf serum (10%) and antibiotics (penicillin and streptomycin). […] The cells are then placed in a medium without glucose or leucine (Krebs medium) for 1 hour at 37° C., and then incubated for 2 hours and 30 minutes in the presence of the test products or reference, (IGF-1, 100 ng/ml) in serum-free DMEM medium containing radiolabeled leucine 2.5 μCi/mL. At the end of the incubation, the supernatants are removed and the cells are lysed in a 0.1N NaOH solution for 30 min. The radioactivity is measured in the cell fraction and the total protein amount is determined by Lowry assay. Each condition is evaluated at a minimum of n=6; IGF-1, 100 ng/mL is our control to stimulate protein synthesis. The results are expressed in cpm/μg of proteins after 2.5 hours of incubation or as a percentage with respect to the control condition.
For the effects on protein synthesis, the results are expressed as a percentage increase in 56K phosphorylation in muscle cells. This percentage is considered significant when it is greater than 120%, the observed average value of IGF-1 at the concentration of 100 ng/mL in this test, considered as reference.

C2Cl2 cells = assay: Evaluation of muscle fiber diameter; assay type: cell-based; details: vs vehicle control
Description: The C2Cl2 myoblastic cells (ATCC CRL-1772) were seeded into glycerol-treated 8-well plates at a density of 10,000 cells per well and cultured in a DMEM medium containing glucose at 4.5 g/L and supplemented with fetal calf serum (10%) and antibiotics (penicillin and streptomycin).
The cells are then placed in a glucose-depleted medium (DMEM containing 1 g/L of glucose) and devoid of serum in the presence of the test molecules or references (IGF-1 at the concentration of 10 ng/mL or dexamethasone 10 nM) for 3 days. At the end of the culture, the cells are rinsed and fixed with 2.5% glutaraldehyde/0.1% Triton solution for 1 hour at room temperature. The cell layer is covered with DAPI (fluorescent labeling of the cell nucleus). After storage in the dark for 16 hours in the cold, the slides are observed under a fluorescence microscope (Carl Zeiss, AxioVert 200) and the images are analyzed using the Axiovision 4.1 software to measure the diameter of the fibers.
C2Cl2 cells are differentiated and treated with compound 1 for the last three days of differentiation.

| Compound | inhibition of the expression of myostatin [1] | percentage of myostatin gene expression in cells in contact with the molecules related to the expression in the control cells [1] | Protein Synthesis (percentage increase in 56K phosphorylation in muscle cells) (muscle cells; 0.5 μm) | Protein Synthesis (percentage increase in 56K phosphorylation in muscle cells) (muscle cells; 5 μm) | Protein Synthesis (percentage increase in 56K phosphorylation in muscle cells) (muscle cells; 50 μm) | protein synthesis in muscle cells (muscle cells; concentration of 0.5 μM) | diameter of the myotubes (muscle fiber diameter, FIG. 1) (C2Cl2 cells; compound 1 at 10 μM, last three days of differentiation) | percentage of myostatin gene expression related to control cells, average value of reference ([1]; IGF-1 at 100 ng/mL) | Protein synthesis, observed average value of reference (muscle cells; IGF-1 at 100 ng/mL) | diameter of myotubes (muscle fiber diameter, FIG. 1) (C2Cl2 cells; IGF1 at 10 ng/ml, 3 days) |
| --- | --- | --- | --- | --- | --- | --- | --- | --- | --- | --- |
| CCON=C(CCC(=O)O)c1ccc(Cl)c(Cl)c1 [Compound 1, 4-(3,4-dichlorophenyl)-4-ethoxyimino-butanoic acid] | significantly inhibit | 71% | 134% | 142% | 151% | significantly increases | significantly increased |  |  |  |
| CCON=C(CCC(=O)OC(C)C)c1ccc(Cl)c(Cl)c1 [Compound 3, Isopropyl acid 4-(3,4-dichlorophenyl)-4-ethoxyimino-butanoate] | significantly inhibit | 41% |  |  |  |  |  |  |  |  |
| IGF-1: reference used to inhibit myostatin expression, stimulate protein synthesis and increase myotube diameter [reference compound] |  |  |  |  |  |  |  | 70% | 120% | significantly increases |
